The numbers were not newly measured in article PMC4585962, “A peptide factor secreted by Staphylococcus pseudintermedius exhibits properties of both bacteriocins and virulence factors” (Scientific Reports, 2015), which cites them from elsewhere.

The test system of one data set is mammalian cells. To be noted: cited from earlier work. The text has this: In addition to the evident bactericidal activity of BacSp222, the most intriguing findings are its cytotoxic and modulatory effects on mammalian cells. Generally, peptide bacteriocins are considered to be noncytotoxic. However, the first known bacterial toxin active against eukaryotic and prokaryotic cells was a cytolysin produced by Enterococcus faecalis.

For data set [1], the system named is Galleria mellonella larvae. To be noted: degradation or inactivation by host agents; cited from earlier work. The method, then:
(§1) BacSp222 remains active upon even prolonged incubation at elevated temperature and is exceptionally resistant to proteases in vitro. The former feature is quite common for bacteriocins, which, in combination with the virtual lack of cytotoxicity, contributes to common and successful application of bacteriocins in the food industry as preservatives, either in the form of additives or as coating agents for packaging materials. […] Resistan ...

The subject of the next data set is proteases. The note with it: cited from earlier work. The protocol: as §1

As to “nisin: low molecular weight bacteriocin produced by lactic acid bacteria (ITSISLCTPGCKTGALMGCNMKTATCHCSIHVSK; not fully specified; Lantibiotic nisin-A; UniProt P13068 24-57, looked up)”, the “concentrations with adverse effects on mammalian cells” value in the data set with mammalian cells was “tens to hundreds”.

On to epidermicin NI01, for which, in data set [1], the “time to loss of bacteriocin activity after administration” value is recorded as “lost within less than an hour”.

With aureocin A53, the resistance to proteases entry with proteases was “Resistance to proteases”. Regarding bovicin HC5, the “concentrations with adverse effects on mammalian cells” value with mammalian cells was “tens to hundreds”.
